Tests used:
Type in all cases: cell-based
[1] = molecular target: T1, human somatostatin receptor subtype 2a (Homo sapiens, UniProt P30874); test: cAMP assay for SSTR2a agonists (HTRF cAMP kit, NKH-477 stimulated); conditions: CHO cells stably expressing human SSTR2a, 1.6 μM NKH-477
T1 construct: expressed in transfected cells
Protocol: (§1) Chinese hamster ovary (CHO) cells stably expressing one of the six human or rodent somatostatin receptor subtypes are grown to 85-100% confluence on standard tissue culture dishes in F12-Ham's growth media (Hyclone) with following additives: 10% donor calf serum (Hyclone), 200 U/mL penicillin (Hyclone), 200 μg/mL streptomycin (Hyclone), 20 mM HEPES (Hyclone), 200 μg/mL hygromycin Hyclone.
(§2) General overview: All SSTR subtypes are Gi coupled G-protein coupled receptors (GPCRs) that lead to decreases in intracellular cyclic AMP (cAMP) when activated by an agonist. Therefore, measurement of intracellular cAMP levels can be used to assess whether compounds of the invention are agonists of SSTR subtypes (John Kelly, Troy Stevens, W. Joseph Thompson, and Roland Seifert, Current Protocols in Pharmacology, 2005, 2.2.1-2.2). One example of an intracellular cAMP assay is described below.
Four days prior to the assay, 5000 Chinese hamster ovary (CHO) cells stably expressing the human somatostatin receptor subtype 2a are plated in each well of a 96-well tissue culture plate (Nest Biotech Cell, flat bottom with low evaporation tissue culture treated; Polystyrene; Non-Pyrogenic) in F12-Ham's media (100 μL/well) supplemented with 200 μg/mL of hygromycin. Incubate at 37 C, 5% CO2, 95% humidity for four days. The cells should reach full confluence. On the day of the assay, various dilutions of the compounds of the invention are prepared in assay buffer (HRTF cAMP kit, Cisbio) in the presence of 1.6 μM NKH-477 (a water-soluble forskolin derivative) and 50 μL of the dilutions are added to the cultured cells and incubated for 20 minutes at 37° C. […] 50 μL of lysis buffer (HRTF cAMP kit, Cisbio) is added to each well and incubated at room temperature for 30 minutes, after which 150 μL assay buffer is added to each well. In a 384-well plate (Grenier, 784-080), 10 μL of assay mixture is added to 10 μL of developing mixture, containing cAMP detection and visualization antibodies are added and the assay is allowed incubate for 1-24 hours at room temperature. The intracellular cAMP concentrations are then measured using a commercially available detection kit (for example, the cAMP HTRF kit, Cisbio). The measured intracellular cAMP concentrations are plotted vs. the concentration of the compounds of the invention and the EC50 of the compounds are calculated using standard methods.

SSTR1 = molecular target: T2, SSTR1 (Homo sapiens, UniProt P30872); test: cAMP functional agonist assay, CHO cells expressing SSTR1; conditions: CHO cells stably expressing SSTR1, cAMP; read-out: SSTR1 EC50
T2 construct: expressed in transfected cells
T2 sequence (P30872 whole entry): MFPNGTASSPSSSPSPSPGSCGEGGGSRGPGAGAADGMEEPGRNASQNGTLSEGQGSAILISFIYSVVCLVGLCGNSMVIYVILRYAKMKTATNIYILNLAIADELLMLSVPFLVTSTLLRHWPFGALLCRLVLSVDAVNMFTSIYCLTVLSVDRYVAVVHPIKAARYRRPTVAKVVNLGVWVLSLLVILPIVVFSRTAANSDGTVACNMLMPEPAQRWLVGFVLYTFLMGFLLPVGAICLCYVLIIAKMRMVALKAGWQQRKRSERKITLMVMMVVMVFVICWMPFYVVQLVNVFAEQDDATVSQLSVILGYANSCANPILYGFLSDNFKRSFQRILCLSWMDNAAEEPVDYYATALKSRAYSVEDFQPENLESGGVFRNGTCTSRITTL
Protocol: as §1
(§3) General overview: All SSTR subtypes are Gi coupled G-protein coupled receptors (GPCRs) that lead to decreases in intracellular cyclic AMP (cAMP) when activated by an agonist. […] One example of an intracellular cAMP assay is described below.

SSTR3 = SSTR3 (UniProt P32745); test: cAMP functional agonist assay, CHO cells expressing SSTR3; conditions: CHO cells stably expressing SSTR3, cAMP
SSTR3, sequence (P32745 whole entry): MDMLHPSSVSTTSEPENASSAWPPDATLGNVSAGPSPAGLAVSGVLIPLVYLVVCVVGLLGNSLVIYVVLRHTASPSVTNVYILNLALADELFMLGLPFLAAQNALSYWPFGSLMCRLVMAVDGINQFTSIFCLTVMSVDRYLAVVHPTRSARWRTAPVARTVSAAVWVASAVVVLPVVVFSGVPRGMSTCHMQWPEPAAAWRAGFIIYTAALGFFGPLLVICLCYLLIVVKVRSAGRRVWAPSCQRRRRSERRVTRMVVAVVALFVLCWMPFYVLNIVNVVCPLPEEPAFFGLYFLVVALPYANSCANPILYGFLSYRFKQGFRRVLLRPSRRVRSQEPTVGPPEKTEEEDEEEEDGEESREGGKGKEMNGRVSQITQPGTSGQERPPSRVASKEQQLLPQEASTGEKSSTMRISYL
Protocol: as §1, §2

SSTR4 = molecular target: T3, SSTR4 (Homo sapiens, UniProt P31391); test: cAMP functional agonist assay, CHO cells expressing SSTR4; conditions: CHO cells stably expressing SSTR4, cAMP; read-out: SSTR4 EC50
T3 construct: expressed in transfected cells
T3 sequence (P31391 whole entry): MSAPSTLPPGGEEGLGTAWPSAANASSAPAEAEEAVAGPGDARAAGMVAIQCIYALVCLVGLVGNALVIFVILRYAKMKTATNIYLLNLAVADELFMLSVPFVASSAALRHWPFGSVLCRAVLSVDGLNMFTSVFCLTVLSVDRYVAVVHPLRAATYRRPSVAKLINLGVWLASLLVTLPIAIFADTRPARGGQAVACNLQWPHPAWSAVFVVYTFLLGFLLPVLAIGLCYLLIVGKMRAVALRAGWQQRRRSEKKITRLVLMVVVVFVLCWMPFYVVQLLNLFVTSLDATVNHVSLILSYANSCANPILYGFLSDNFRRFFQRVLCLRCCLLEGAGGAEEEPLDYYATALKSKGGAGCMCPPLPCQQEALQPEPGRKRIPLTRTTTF
Protocol: as §1, §3

SSTR5 = molecular target: T4, SSTR5 (Homo sapiens, UniProt P35346); test: cAMP functional agonist assay, CHO cells expressing SSTR5; conditions: CHO cells stably expressing SSTR5, cAMP
T4 construct: expressed in transfected cells
T4 sequence (P35346 whole entry): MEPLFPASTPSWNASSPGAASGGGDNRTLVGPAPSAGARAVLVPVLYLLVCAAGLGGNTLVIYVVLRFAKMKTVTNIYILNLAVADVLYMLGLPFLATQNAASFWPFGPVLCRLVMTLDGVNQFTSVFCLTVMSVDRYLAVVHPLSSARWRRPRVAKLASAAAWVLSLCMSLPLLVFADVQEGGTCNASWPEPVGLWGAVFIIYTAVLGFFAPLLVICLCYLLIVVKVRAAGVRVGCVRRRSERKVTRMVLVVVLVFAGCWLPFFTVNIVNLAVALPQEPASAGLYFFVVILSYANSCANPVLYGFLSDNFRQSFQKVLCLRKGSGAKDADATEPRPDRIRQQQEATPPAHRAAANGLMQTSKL
Protocol: as §1, §2

T1 sequence (P30874 whole entry): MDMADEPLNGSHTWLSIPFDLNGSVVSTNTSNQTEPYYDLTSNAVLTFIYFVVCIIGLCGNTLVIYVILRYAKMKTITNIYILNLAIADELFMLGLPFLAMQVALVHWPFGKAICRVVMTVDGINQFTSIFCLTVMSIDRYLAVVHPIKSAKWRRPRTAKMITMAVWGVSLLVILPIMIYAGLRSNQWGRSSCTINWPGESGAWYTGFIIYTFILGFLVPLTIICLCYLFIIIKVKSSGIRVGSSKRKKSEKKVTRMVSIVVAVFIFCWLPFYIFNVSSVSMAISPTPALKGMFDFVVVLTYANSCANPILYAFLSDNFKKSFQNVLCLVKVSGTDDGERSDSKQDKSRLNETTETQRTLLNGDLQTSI

Row | SMILES | EC50 [1] | EC50 (SSTR1) | EC50 (SSTR3) | EC50 (SSTR4) | EC50 (SSTR5)
1 | CCN(CCN)Cc1c(-c2cc(C)cc(Cl)c2)cnc2ncn(-c3cc(O)cc(F)c3)c(=O)c12 [Compound A-3, 5-(((2-aminoethyl)(ethyl)amino)methyl)-6-(3-chloro-5-methylphenyl)-3-(3-fluoro-5-hydroxyphenyl)pyrido[2,3-d]pyrimidin-4(3H)-one] | < 0.1 µM | > 10 µM | 0.1 to 10 µM | < 0.1 µM | 
2 | CCN(Cc1c(-c2cc(C)cc(C)c2)cnc2ncn(-c3cccc(O)c3)c(=O)c12)C[C@H](C)N [Compound A-9, 5-({[(2S)-2-aminopropyl](ethyl)amino}methyl)-6-(3,5-dimethylphenyl)-3-(3-hydroxyphenyl)-3H,4H-pyrido[2,3-d]pyrimidin-4-one] | < 0.1 µM | 0.1 to 10 µM | < 0.1 µM | < 0.1 µM | 
3 | CN(Cc1c(-c2cccc(Cl)c2)cnc2ncn(-c3cccc(O)c3)c(=O)c12)CC1CCCCN1 (stereo not drawn) [Compound A-24, 6-(3-chlorophenyl)-3-(3-hydroxyphenyl)-5-{[methyl(piperidin-2-ylmethyl)amino]methyl}-3H,4H-pyrido[2,3-d]pyrimidin-4-one] | < 0.1 µM | 0.1 to 10 µM | < 0.1 µM | < 0.1 µM | 
4 | Cc1cc(F)cc(-c2cnc3ncn(-c4cccc(O)c4)c(=O)c3c2CN(C)CC2CCCCN2)c1 (stereo not drawn) [Compound A-25, 6-(3-fluoro-5-methylphenyl)-3-(3-hydroxyphenyl)-5-{[methyl(piperidin-2-ylmethyl)amino]methyl}-3H,4H-pyrido[2,3-d]pyrimidin-4-one] | < 0.1 µM | 0.1 to 10 µM | < 0.1 µM | < 0.1 µM | 
5 | Cc1cc(Cl)cc(-c2cnc3ncn(-c4cccc(O)c4)c(=O)c3c2CN(C)C[C@@H]2CCCCN2)c1 [Compound A-29, 6-(3-chloro-5-methylphenyl)-3-(3-hydroxyphenyl)-5-({methyl[(2S)-piperidin-2-ylmethyl]amino}methyl)-3H,4H-pyrido[2,3-d]pyrimidin-4-one] | < 0.1 µM | 0.1 to 10 µM | < 0.1 µM | < 0.1 µM | 
6 | Cc1cc(Cl)cc(-c2cnc3ncn(-c4cc(O)cc(OC(F)(F)F)c4)c(=O)c3c2CN(C)C[C@@H]2CCCN2)c1 [Compound A-52, 6-(3-chloro-5-methylphenyl)-3-[3-hydroxy-5-(trifluoromethoxy)phenyl]-5-({methyl[(2S)-pyrrolidin-2-ylmethyl]amino}methyl)-3H,4H-pyrido[2,3-d]pyrimidin-4-one] | < 0.1 µM |  | 0.1 to 10 µM | < 0.1 µM | > 10 µM
7 | Cc1cc(Cl)cc(-c2cnc3nc(C)n(-c4cc(F)cc(C#N)c4)c(=O)c3c2CN(C)C[C@@H]2CCCN2)c1 [Compound A-60, 3-[6-(3-chloro-5-methylphenyl)-2-methyl-5-({methyl[(2S)-pyrrolidin-2-ylmethyl]amino}methyl)-4-oxo-3H,4H-pyrido[2,3-d]pyrimidin-3-yl]-5-fluorobenzonitrile] | < 0.1 µM | 0.1 to 10 µM | < 0.1 µM | < 0.1 µM | 
8 | CC[C@H](N)CN(C)Cc1c(-c2cc(C)cc(C)c2)cnc2ncn(-c3cccc(O)c3)c(=O)c12 [Compound A-61, 5-({[(2S)-2-aminobutyl](methyl)amino}methyl)-6-(3,5-dimethylphenyl)-3-(3-hydroxyphenyl)-3H,4H-pyrido[2,3-d]pyrimidin-4-one] | < 0.1 µM |  | 0.1 to 10 µM | < 0.1 µM | > 10 µM
9 | CC[C@H](N)CN(C)Cc1c(-c2cc(C)cc(Cl)c2)cnc2ncn(-c3cc(O)cc(F)c3)c(=O)c12 [Compound A-66, 5-({[(2S)-2-aminobutyl](methyl)amino}methyl)-6-(3-chloro-5-methylphenyl)-3-(3-fluoro-5-hydroxyphenyl)-3H,4H-pyrido[2,3-d]pyrimidin-4-one] | < 0.1 µM | > 10 µM | 0.1 to 10 µM | < 0.1 µM | 

Reference: patent US9957267B2, “Somatostatin modulators and uses thereof” (Crinetics Pharmaceuticals, Inc., priority 2015, dated 2018)
